According to PubChem BioAssay AID2060894 (Molecular Pharmacology Branch, DTP, NCI, 2025):

Tested on: K12877-001-R-J1-PDC complex spheroid viability
Experiment: Anticancer human tumor K12877-001-R-J1-PDC patient-derived lung adenocarcinoma cell line growth inhibition [RAS]
Details: for IC50: curve of first compound; for viability, T/C: stronger effect = lower value
Procedure, shortened: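 Multi-cell-type spheroids: tumor cells plus HUVEC endothelial cells and mesenchymal stem cells. RAS-pathway inhibitors were combined with targeted agents, each dosed in half-log steps down from clinical Cmax, or from 10 microM when Cmax was unknown.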
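Also: spheroids exposed to agents for one week before readout.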
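For viability, T/C in this document: tumour cells co-cultured with HUVEC and mesenchymal stem cells in spheroids.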

Molecule `CCN1CCN(Cc2ccc(Nc3ncc(F)c(-c4cc(F)c5nc(C)n(C(C)C)c5c4)n3)nc2)CC1` + C#Cc1c(F)ccc2cc(O)cc(-c3ncc4c(N5CC6CCC(C5)N6)nc(OCC56CCCN5CC(F)C6)nc4c3F)c12 has an IC50 (second compound 0.0316 µM) of over 1 µM, an IC50 (second compound 0.1 µM) of over 1 µM and an IC50 (second compound 0.316 µM) of over 1 µM. The IC50 (second compound 1 µM) was over 1 µM, the IC50 (second compound 3.16 µM) was over 1 µM and the IC50 (second compound 10 µM) was over 1 µM. It also gave a viability, T/C (second compound 0.0316 µM, first compound 0.00316 µM) of 106%, a viability, T/C (second compound 0.0316 µM, first compound 0.01 µM) of 101% and a viability, T/C (second compound 0.0316 µM, first compound 0.0316 µM) of 106%. It also gave a viability, T/C (second compound 0.0316 µM, first compound 0.1 µM) of 85.6%, a viability, T/C (second compound 0.0316 µM, first compound 0.316 µM) of 118% and a viability, T/C (second compound 0.0316 µM, first compound 1 µM) of 97.2%. The viability, T/C (second compound 0.1 µM, first compound 0.00316 µM) was 97.9%, the viability, T/C (second compound 0.1 µM, first compound 0.01 µM) was 102% and the viability, T/C (second compound 0.1 µM, first compound 0.0316 µM) was 113%. The viability, T/C (second compound 0.1 µM, first compound 0.1 µM) was 97.8%, the viability, T/C (second compound 0.1 µM, first compound 0.316 µM) was 118% and the viability, T/C (second compound 0.1 µM, first compound 1 µM) was 88.4%. For the same molecule, the viability, T/C (second compound 0.316 µM, first compound 0.00316 µM) was 115%, the viability, T/C (second compound 0.316 µM, first compound 0.01 µM) was 107% and the viability, T/C (second compound 0.316 µM, first compound 0.0316 µM) was 98.6%. The viability, T/C (second compound 0.316 µM, first compound 0.1 µM) was 99.2%, the viability, T/C (second compound 0.316 µM, first compound 0.316 µM) was 109% and the viability, T/C (second compound 0.316 µM, first compound 1 µM) was 108%. The viability, T/C (second compound 1 µM, first compound 0.00316 µM) was 109%, the viability, T/C (second compound 1 µM, first compound 0.01 µM) was 113% and the viability, T/C (second compound 1 µM, first compound 0.0316 µM) was 96.7%. The viability, T/C (second compound 1 µM, first compound 0.1 µM) was 104%, the viability, T/C (second compound 1 µM, first compound 0.316 µM) was 108% and the viability, T/C (second compound 1 µM, first compound 1 µM) was 82.2%. It also gave a viability, T/C (second compound 3.16 µM, first compound 0.00316 µM) of 108%, a viability, T/C (second compound 3.16 µM, first compound 0.01 µM) of 105% and a viability, T/C (second compound 3.16 µM, first compound 0.0316 µM) of 97%. The viability, T/C (second compound 3.16 µM, first compound 0.1 µM) was 94.1%, the viability, T/C (second compound 3.16 µM, first compound 0.316 µM) was 76.1% and the viability, T/C (second compound 3.16 µM, first compound 1 µM) was 83.9%. The viability, T/C (second compound 10 µM, first compound 0.00316 µM) was 105%, the viability, T/C (second compound 10 µM, first compound 0.01 µM) was 84.8% and the viability, T/C (second compound 10 µM, first compound 0.0316 µM) was 90.4%. It also gave a viability, T/C (second compound 10 µM, first compound 0.1 µM) of 92.3%, a viability, T/C (second compound 10 µM, first compound 0.316 µM) of 87.2% and a viability, T/C (second compound 10 µM, first compound 1 µM) of 56.7%.
